Like-named read-outs stand apart in the source and are kept apart here.
Tests used:
[1] = test system: KRAS G12C mutant MIA PaCa-2 cells; assay: Cell proliferation inhibition experiment, 3D spheroid, CellTiter-Glo, MIA PaCa-2; type: cell-based, human; conditions: Homo sapiens, MIA PaCa-2, 120 h, 3D cell model in 384-well spheroid plate, 5 days, CellTiter-Glo; read-out: MIA-PaCa2 IC50
Outline: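 200 MIA PaCa-2 cells/well grown overnight as 3D spheroids, then exposed to 3.16-fold compound dilutions (0.1% DMSO final) for 5 days. Viability read by CellTiter-Glo luminescence; inhibition calculated against DMSO and medium-only controls, and IC50 fitted by four-parameter model.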

KRAS G12C = biological target: T1, KRAS G12C (Homo sapiens, UniProt P01116, G12C); assay: KRAS G12C NEA-HTRF experiment (SOS1-catalyzed displacement of GDP by GTP); type: biochemical
T1 construct: purchased Reactionbiology
T1 sequence (P01116 1-188 isoform P01116-2 G12C): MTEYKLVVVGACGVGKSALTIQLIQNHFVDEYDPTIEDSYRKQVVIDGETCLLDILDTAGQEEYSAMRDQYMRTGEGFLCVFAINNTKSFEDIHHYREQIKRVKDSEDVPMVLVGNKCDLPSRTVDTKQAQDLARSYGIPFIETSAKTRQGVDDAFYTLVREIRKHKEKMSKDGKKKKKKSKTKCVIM
Excerpt: Raw materials and instruments: KRAS G12C (his-tag) purchased from Reactionbiology; batch number 3496; SOS1 purchased from Reactionbiology; batch number: 3501; GTP purchased from Sigma; article number: G8877; batch number: SLBV1450; Tris-HC1 purchased from Sigma; EDTA purchased from absin; article number: abs42017668; batch number: JE20; NaCl purchased from Sigma; article number: 55886; batch number: SLBW4193; MgCl2 purchased from Shyuanye; article number: R21455; batch number: L07S9G69806; HEPES purchased from Life Technologies; article number: 15630-080; batch number: 2037042; DTT purchased from Thermo Fisher; article number: R0862; batch number: 00608918; Triton X-100 purchased from Sigma; article number: T8787-100 ML; batch number: SLBW7103; DY647-labeled GDP purchased from Jena Bioscience; article number: NU-840-647P1; batch number: BM019-045; Anti-6H1S-Tb purchased from Cisbio; article number: 61H12TLA; batch number: 13A; Bradford Assay Kit purchased from Thermo Fisher; article number: 23246; batch number: UG287474; white opaque 96-well plate purchased from Cisbio; article number: 66PL96025; batch number: N°06; NAP-5 column purchased from GE Healthcare; article number: 17085301; batch number: 16995164; mircoplate reader purchased from PerkinElmer; model: Envision MLD2105-0020; equipment number 1050369. The effect of compounds on SOS1-catalyzed displacement of GDP by GTP on KRAS protein was examined using a homogeneous time-resolved fluorescence (HTRF) method. 30 μM 6×his-tagged KRAS G12C recombinant protein was incubated with 80 μM fluorescent dye DY647-labeled GDP in labeling buffer (1 mM DTT, 7.5 mM EDTA, 25 mM Tris-HCl, 45 mM NaCl) at 20° C. in the dark for 2 hours, purified using NAP-5 column, and then protein quantification was performed with Bradford Assay Kit after purification to determine the concentration of KRAS […] 3.16-fold gradient concentration stock solution of 1000× compound was prepared with DMSO, and diluted 250-fold to 4× compound stock solution with reaction buffer (40 mM HEPES, 10 mM MgCl2, 1 mM DTT, 0.002% Triton X-100). KRAS G12C-GDP/Tb working solution (40 nM KRAS […] Tb) and SOS1/GTP working solution (0.2 μM SOS1, 200 μM GTP) were prepared using the reaction buffer. A white opaque 96-well plate was taken, and 5 μL of 4× compound stock solution and 10 μL of KRAS G12C-GDP/Tb working solution were added to each well. 5 μL of reaction buffer instead of 4x compound stock solution was used in the control well. After incubation in the dark for 15 minutes at 20° C., 5μL of SOS1/GTP working solution was added thereto, and the fluorescence value (excitation wavelength: 320 nm, emission wavelength: 615 nm and 665 nm) was read after incubating at 20° C. in the dark for 2 hours. Another T0 group was set up with 10 μL reaction buffer+10 μL KRAS G12C-GDP/Tb working solution, and the fluorescence value was read directly by the microplate reader. The fluorescence signal ratio RLU=(665 nm signal/615 nm signal)×10^4; and the compound inhibition rate IR (%)=(RLUcompound-RLUcontrol)/(RLUT0-RLUcontrol)×100% were calculated. The IC50 value was calculated by fitting the gradient dilution concentration of compound and the corresponding inhibition rate with the four-parameter method. The NEA activity of the compounds prepared in the above embodiments of the present disclosure was 0.0001 μM to 1 μM; the inhibitory activity of some compounds on KRAS G12C mutant MIA PaCa-2 cells was 0.001 μM to 0.5 μM or 0.001 μM to 0.1 μM.

[2] = test system: KRAS G12C mutant NCI-H358 cells; assay: Cell proliferation inhibition experiment, 3D spheroid, CellTiter-Glo, NCI-H358; type: cell-based, human; conditions: NCI-H358 (KRAS G12C mutant) 3D spheroid, 5 days with compound, CellTiter-Glo, read-out: H358 IC50
Outline: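 Spheroids grown overnight from 800 H358 or 400 A549 cells were treated for 5 days with serially diluted compound (3.16-fold, 0.1% DMSO, 2% FBS). ATP-based luminescence gave IC50.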

[3] = test system: phosphorylated ERK downstream of KRAS G12C in MIA PaCa2 cells; assay: Cell p-ERK detection experiment (HTRF) in MIA PaCa2; type: cell-based, human; conditions: Homo sapiens, MIA PaCa-2, 2 h, MIA PaCa2 cells, 2 hours with compound, Advance ERK phospho-T202/Y204 HTRF kit; read-out: p-ERK IC50
Excerpt: Raw materials and instruments: MIA PaCa-2 purchased from ATCC; article number: CRL-1420; batch number: 63143594; DMEM purchased from Gibco; article number: 11995-065; batch number: 2186878; FBS purchased from Gibco; article number: 10099-141; batch number: 2109290CP; Horse serum purchased from Gibco; article number: 16050-122; batch number: 1818976; Trypsin-EDTA purchased from Gibco; article number: 25200-072; batch number: 2085552; PS purchased from Gibco; article number: 15140-122; batch number: 2145451; DMSO purchased from VWR AMRESCO; article number: 0231-500ML; batch number: 0457C072; 96-well cell culture plate purchased from Corning; article number: 3599; batch number: 22718601; white opaque 96-well plate purchased from Cisbio; article number: 66PL96025; batch number: N°05; Advance ERK phospho-T202/Y204 kit purchased from Cisbio; article number: 64AERPEH; batch number: 11D; microplate reader purchased from PerkinElmer; model: Envision MLD2105-0020; equipment number 1050369.
MIA PaCa2 was a KRAS G12C mutant human pancreatic cancer cell line cultured in 10% FBS+2.5% Horse serum DMEM culture medium. Cells at logarithmic growth stage were taken, digested with trypsin-EDTA, then collected and counted, and 2.5E4 cells were inoculated in a 96-well cell culture plate and cultured overnight. A 3.16-fold gradient concentration stock solution of 1000× compound was prepared with DMSO, and diluted 200-fold to 5× compound stock solution with culture medium. On the second day after cell inoculation, 5× compound stock solution was added to each cell culture well, with a final concentration of 1× and a DMSO content of 0.1%. DMSO was used as experimental control (control). After the compound was added and cultured for two hours, the residual culture medium was removed. 50 μL of cell lysate (from Advance ERK phospho-T202/Y204 kit, the same below) was added to each well, mixed well and incubated for 30 minutes, and then 16 μL of the mixed solution was transferred to a white opaque 96-well plate, and 16 μL of cell lysate was added to the blank wells. After the transfer was completed, 4 μL of p-ERK HTRF antibody (from Advance ERK phospho-T202/Y204 kit) mixture was added to each well, incubated for 4 hours, and the fluorescence value was read with the microplate reader. The inhibition rate of the compound IR (%)=(RLU control -RLU compound)/(RLU control-RLU blank)×100% was calculated. The gradient dilution concentration of the compound and the corresponding cell proliferation inhibition rate were fitted by Prism 8 four-parameter method, and the IC50 value was calculated. The compounds prepared in the above embodiments of the present disclosure have inhibitory activity of 0.0001 μM to 1 μM on the phosphorylated ERK level downstream of the cell channel of KRAS G12C protein mutant; some compounds have inhibitory activity of 0.001 μM to 1 μM or 0.001 μM to 0.5 μM on phosphorylated ERK level downstream of cell channel of KRAS G12C protein mutant.

| SMILES | IC50 [1] [nM] | IC50 (KRAS G12C) [nM] | IC50 [2] [nM] | IC50 ([2]; Homo sapiens, NCI-H358, 120 h) [nM] | IC50 [3] [nM] |
| --- | --- | --- | --- | --- | --- |
| C=CC(=O)N1CCN2C(=O)c3c(N4C[C@H](C(=O)O)CC4(C)C)nc(-c4c(O)cccc4F)c(Cl)c3OC[C@H]2C1 (single isomer, unassigned) [Z458-2] | > 1000 | 252 |  |  |  |
| C=CC(=O)N1CCN2C(=O)c3c(N4CCC[C@@]4(C)C(=O)NC)nc(-c4c(F)cccc4OC)c(Cl)c3OC[C@H]2C1 (single isomer, unassigned) [Z466-1] |  | 764 |  | 49 |  |
| C=CC(=O)N1CCN2C(=O)c3c(N4C[C@@H](N(C)CCOC)CC4(C)C)nc(-c4ccccc4F)c(Cl)c3OC[C@H]2C1 (single isomer, unassigned) [Z406-2] |  | 175 |  | 21 |  |
| C=CC(=O)N1CCN2C(=O)c3c(N4CC(N5CC(OC)C5)CC4(C)C)nc(-c4ccccc4F)c(Cl)c3OC[C@H]2C1 (single isomer, unassigned) [Z479-2] |  | 431 |  | 74.9 |  |
| C=CC(=O)N1CCN2C(=O)c3c(N4C[C@@H](C)O[C@H](C)C4)nc(-c4c(O)cccc4F)c(Cl)c3OC[C@H]2C1 [Z248-2, (6aR)-8-acryloyl-4-chloro-1-((2R,6R)-2,6-dimethylmorpholino)-3-(2-fluoro-6-hydroxyphenyl)-6,6a,7,8,9,10-hexahydro-12H-pyrazino[2,1-c]pyrido[3,4-f][1,4]oxazepin-12-one] |  | 169 |  | 16 |  |
| C=CC(=O)N1CCN2C(=O)c3c(N4C[C@H](N5CCN(C)CC5)CC4(C)C)nc(-c4ccccc4F)c(F)c3OC[C@H]2C1 (single isomer, unassigned) [Z474-2] |  | 593 |  | 63.3 |  |
| C=CC(=O)N1CCN2C(=O)c3c(N4CCC[C@@]4(C)C(=O)NC)nc(-c4c(F)cccc4OC)c(Cl)c3OC[C@H]2C1 (single isomer, unassigned) [Z466-2] |  | 383 | 38 |  |  |
| C=CC(=O)N1CCN2C(=O)c3c(N4CCN5CCC[C@@H]5C4)nc(-c4c(O)cccc4F)c(Cl)c3OC[C@H]2C1 [Z317-2, (6aR)-8-acryloyl-4-chloro-3-(2-fluoro-6-hydroxyphenyl)-1-((R)-hexahydropyrrolo[1,2-a]pyrazin-2(1H)-yl)-6,6a,7,8,9,10-hexahydro-12H-pyrazino[2,1-c]pyrido[3,4-f][1,4]oxazepin-12-one] |  |  |  | 23.7 | 162 |

Second part, the compound after the results:

| IC50 [1] [nM] | IC50 (KRAS G12C) [nM] | IC50 [2] [nM] | IC50 ([2]; Homo sapiens, NCI-H358, 120 h) [nM] | IC50 [3] [nM] | SMILES |
| --- | --- | --- | --- | --- | --- |
|  | 275 | 38 |  |  | C=CC(=O)N1CCN2C(=O)c3c(N4CCN(C)[C@H](C)[C@@H]4C)nc(-c4c(O)cccc4F)c(Cl)c3OC[C@H]2C1 (relative stereo) [Z465, (6aR)-8-acryloyl-4-chloro-3-(2-fluoro-6-hydroxyphenyl)-1-(cis-2,3,4-trimethylpiperazin-1-yl)-12-oxo-6,6a,7,8,9,10-hexahydro-12H-pyrazino[2,1-c]pyrido[3,4-f][1,4]oxazepin-12-one] |
|  |  |  | 29 | 143 | C=CC(=O)N1CCN2C(=O)c3c(N4CCN5CCCC5(C)C4)nc(-c4c(O)cccc4F)c(Cl)c3OC[C@H]2C1 (stereo partly drawn) [Z339, (6aR)-8-acryloyl-4-chloro-3-(2-fluoro-6-hydroxyphenyl)-1-(8a-methyloctahydropyrrolo[1,2-c]pyrazin-6 (2H)-one-1-yl)-6,6a,7,8,9,10-hexahydro-12H-pyrazino[2,1-c]pyrido[3,4-f][1,4]oxazepin-12-one] |
|  |  |  | 22 | 180 | C=CC(=O)N1CCN2C(=O)c3c(N4CCCC4(C)C)nc(-c4ccccc4F)c(Cl)c3OC[C@H]2C1 [Z147, (R)-8-acryloyl-4-chloro-1-(2,2-dimethylpyrrolidin-1-yl)-3-(2-fluorophenyl)-6,6a,7,8,9,10-hexahydro-12H-pyrazino[2,1-c]pyrido[3,4-f][1,4]oxazepin-12-one] |
|  | 423 |  | 29.6 |  | C=CC(=O)N1CCN2C(=O)c3c(N4CCN(CCOC)C(C)(C)C4)nc(-c4ccccc4F)c(Cl)c3OCC2C1 (stereo not drawn) [Z478, 8-acryloyl-4-chloro-3-(2-fluorophenyl)-1-(4-(2-methoxyethyl)-3,3-dimethylpiperazin-1-yl)-6,6a,7,8,9,10-hexahydro-12H-pyrazino[2,1-c]pyrido[3,4-f][1,4]oxazepin-12-one] |
